# Patent publication US20240024261A1, “PHARMACEUTICAL COMPOSITION FOR IMPROVING COGNITIVE ABILITY OR ENHANCING MEMORY” (DR. RAYMOND LAB INC, priority 2020, published 2024)
# Several values for one entry are separate records, joined by “and”; a condition that tells them apart may be missing. Equal values may be shown once. Where a name gives a salt, the structure may show the parent alone. Read-outs that look alike come from different tables or passages of the source.
# What was measured:
# ICR mouse = test: Passive avoidance test in scopolamine-treated mice; format: in vivo; conditions: scopolamine i.p., mean ± standard error
# Description: Each material prepared in the preparation example was prepared so that each may be orally administered to 7 experimental groups in the following and Table 1.
# In the following Table 1, only the excipient prepared in the preparation examples was orally administered to a normal control group and a negative control group, respectively, scopolamine was administered to the remaining experimental groups (G2-G7) other than the normal control group (G1) in the behavioral experiment of Test Example 4 to cause cognitive function decline and a memory impairment effect, and then the behavior was observed.
# After the test material (drug) of Test Example 3 was administered to each experimental group during the test, a passive avoidance test was performed, and change in mouse behavior was observed.
# After each of the test materials was administered to each experimental group of Table 1 of Test Example 3, the passive avoidance test was performed on day 25 by the following procedure: • a) The object was put into an unlit white room of a conditioning box for the passive avoidance test, and then was adapted for 60 seconds. • b) A guillotine door was opened simultaneously with turning on a LED light of the white room, and the object was allowed to explore a dark room for 180 seconds for adaptation. • c) On the next day (day 26) also, the above process was performed and repeated once more, and the object was adapted so that it took around 30 seconds to enter the dark room after turning on the LED light. • d) After administering the drug 1 hour before learning on day 27, 4 mL/kg of Scopolamine which was dissolved at 0.25 mg/mL in a 0.9% saline solution was intraperitoneally administered to the objects of the remaining experimental groups other than the normal control group (G1), respectively, after 30 minutes, and the objects were allowed to stand for 30 minutes in the breeding box. • e) 30 minutes after administering Scopolamine, the objects were put into the unlit white room, the guillotine door was opened simultaneously with turning on the LED light after 10 seconds. When all of the four legs of the objects entered to the dark room, the guillotine door was closed, the time spent (latency time) was measured with a timer, and electrical stimulation was given at 0.5 mA for 3 seconds.
# acetylcholine = test: Acetylcholine content in hippocampus after passive avoidance test; format: in vivo, mouse; conditions: scopolamine, mean ± standard error
# Description: (§1) On the next day of the end of the passive avoidance test, the test material was administered, and the objects were allowed to stand in a home cage for 30 minutes. Subsequently, Scopolamine was intraperitoneally administered at a dose of 1 mg/kg, and then the objects were allowed to stand in a home cage for 30 minutes.
# (§2) A brain tissue was separately separated and stored at −70° C. until analysis.
# A choline assay buffer (Biovision, CA, USA) was added to a hippocampal tissue of the separated brain, crushed, and then centrifuged to obtain a supernatant liquid, which was used in the test.
# The amount of acetylcholine in the supernatant liquid was measured using a choline/acetylcholine quantification kit (Biovision, CA, USA).
# [1] = test system: Acetylcholine esterase (AchE); format: in vivo; conditions: forebrain, scopolamine, mean ± standard error
# Description: as §1, §2
# Acetylcholine esterase (AchE) activity was measured with a supernatant liquid obtained by adding a tissue protein extraction reagent (Biovision, CA, USA) to a forebrain tissue, crushing it, and centrifuging it, using an acetylcholinesterase activity assay kit (Biovision, CA, USA).
# TNF-α = test: Inflammatory cytokine TNF-α in hippocampus (ELISA); format: in vivo, mouse; conditions: scopolamine, mean ± standard error
# Description: as §1, §2
# (§3) Inflammatory cytokine in a brain tissue was measured with a supernatant liquid obtained by adding a tissue protein extraction reagent (Biovision, CA, USA) to a brain tissue, crushing it, and centrifuging it, using an ELISA Kit (R&D System, MN, USA).
# IL-1β = test: Inflammatory cytokine IL-1β in hippocampus (ELISA); format: in vivo, mouse; conditions: scopolamine, mean ± standard error
# Description: as §1, §2, §3
# [2] = Body weight during the test; format: in vivo, mouse; conditions: mean ± standard error
# Description: For all objects of each experimental group, when drug administration started, the body weight was measured twice a week from the start of administration until the end of the experiment, and was measured on the date of the final autopsy.
# ceramide = test: Ceramide content in brain tissue (forebrain); format: in vivo, mouse; conditions: for Ceramide content, N-acyl chain length C14 / Ceramide content, N-acyl chain length C16 / Ceramide content, N-acyl chain length C18 / Ceramide content, N-acyl chain length C20 / Ceramide content, N-acyl chain length C22 / Ceramide content, N-acyl chain length C24 / Ceramide content, N-acyl chain length C24:1 / Ceramide content, N-acyl chain length C26 / Ceramide content, N-acyl chain length C26:1 / Ceramide content, Total: Neuromide 100 mg/kg oral, scopolamine
# Description: Two types of forebrain parts of experimental groups G1, G2, and G5 in the brain tissues separated above were secured, respectively.
# The ceramide contents were analyzed therefrom, and the average and the deviation thereof were calculated.
# At this time, the measurement of the ceramide content was performed by confirmation and quantitative method of ceramide commonly known to a person skilled in the art.
# sphingoid base = test: Sphingoid base content in brain tissue (forebrain); format: in vivo, mouse; design: Sphingoid base content, Sphingosine (SPN) / Sphingoid base content, S1P / Sphingoid base content, Sphinganine (Sa) / Sphingoid base content, Sa1P: unit not given here; conditions: for Sphingoid base content, S1P / Sphingoid base content, Sa1P / Sphingoid base content, Sphinganine (Sa) / Sphingoid base content, Sphingosine (SPN): Neuromide 100 mg/kg oral, scopolamine
# Description: Two types of forebrain parts of the experimental groups G1, G2, and G5 in the separated brain tissue were secured, respectively, the contents of sphingoid base were analyzed, and the average and the deviation were calculated.
# At this time, the measurement of contents of sphingosine (SPN), sphinganine (Sa), sphingosine-1-phosphate (S1P), and sphinganine-1-phosphate (Sa1P) which are sphingoid bases was performed by confirmation and quantitative method of sphingoid bases commonly known to a person skilled in the art.
# [3] = Average of two forebrain samples
# [4] = individual forebrain samples 5-2, 5-3, listed as Example 3
# [5] = Donepezil 1 mg/kg oral, hydrochloride
smiles,measurement,setting,value
"CCCCCCCCCCCCCCCC(=O)NC(CO)CO [Neuromide, N-palmitoyl serinol]",Passive avoidance test Time taken (latency time),ICR mouse; Neuromide 16 mg/kg oral,22.3 s and 22.3 ± 3.6 s
same,Passive avoidance test Time taken (latency time),ICR mouse; Neuromide 40 mg/kg oral,31 s and 31 ± 8.9 s
same,Passive avoidance test Time taken (latency time),ICR mouse; Neuromide 100 mg/kg oral,35.7 s and 35.7 ± 11.5 s
same,Acetylcholine,acetylcholine; Neuromide 16 mg/kg oral,1.1 Nmol/mg protein and 1.1 ± 0.1 Nmol/mg protein
same,Acetylcholine,acetylcholine; Neuromide 40 mg/kg oral,1.1 Nmol/mg protein and 1.1 ± 0.3 Nmol/mg protein
same,Acetylcholine,acetylcholine; Neuromide 100 mg/kg oral,1.5 Nmol/mg protein and 1.5 ± 0.2 Nmol/mg protein
same,Acetylcholinesterase (AchE) activity,[1]; Neuromide 16 mg/kg oral,7.17 mU/mg tissue protein and 7.17 ± 1.75 mU/mg tissue protein
same,Acetylcholinesterase (AchE) activity,[1]; Neuromide 40 mg/kg oral,7.79 mU/mg tissue protein and 7.79 ± 1.93 mU/mg tissue protein
same,Acetylcholinesterase (AchE) activity,[1]; Neuromide 100 mg/kg oral,6.19 mU/mg tissue protein and 6.19 ± 1.84 mU/mg tissue protein
same,TNF-α,TNF-α; Neuromide 16 mg/kg oral,211.5 pg/mg tissue protein and 211.5 ± 25.3 pg/mg tissue protein
same,TNF-α,TNF-α; Neuromide 40 mg/kg oral,196.2 pg/mg tissue protein and 196.2 ± 28.4 pg/mg tissue protein
same,TNF-α,TNF-α; Neuromide 100 mg/kg oral,189.2 pg/mg tissue protein and 189.2 ± 33 pg/mg tissue protein
same,IL-1β,IL-1β; Neuromide 16 mg/kg oral,194.7 pg/mg tissue protein and 194.7 ± 30.6 pg/mg tissue protein
same,IL-1β,IL-1β; Neuromide 40 mg/kg oral,188.6 pg/mg tissue protein and 188.6 ± 32.4 pg/mg tissue protein
same,IL-1β,IL-1β; Neuromide 100 mg/kg oral,151.5 pg/mg tissue protein and 151.5 ± 24.9 pg/mg tissue protein
same,Weight,"[2]; Neuromide 16 mg/kg oral, day 0 after administration",34.9 ± 0.4 g
same,Weight,"[2]; Neuromide 16 mg/kg oral, day 1 after administration",35.1 ± 0.4 g
same,Weight,"[2]; Neuromide 16 mg/kg oral, day 5 after administration",35.9 ± 0.4 g
same,Weight,"[2]; Neuromide 16 mg/kg oral, day 8 after administration",36.4 ± 0.5 g
same,Weight,"[2]; Neuromide 16 mg/kg oral, day 12 after administration",36.4 ± 0.5 g
same,Weight,"[2]; Neuromide 16 mg/kg oral, day 15 after administration",36.3 ± 0.6 g
same,Weight,"[2]; Neuromide 16 mg/kg oral, day 19 after administration",37.3 ± 0.7 g
same,Weight,"[2]; Neuromide 16 mg/kg oral, day 22 after administration",37.2 ± 1^ g
same,Weight,"[2]; Neuromide 16 mg/kg oral, day 26 after administration",37.2 ± 0.8 g
same,Weight,"[2]; Neuromide 16 mg/kg oral, day 29 after administration",37.1 ± 0.9 g
same,Weight,"[2]; Neuromide 40 mg/kg oral, day 0 after administration",34.9 ± 0.4 g
same,Weight,"[2]; Neuromide 40 mg/kg oral, day 1 after administration",35.5 ± 0.4 g
same,Weight,"[2]; Neuromide 40 mg/kg oral, day 5 after administration",36 ± 0.3 g
same,Weight,"[2]; Neuromide 40 mg/kg oral, day 8 after administration",36.7 ± 0.4 g
same,Weight,"[2]; Neuromide 40 mg/kg oral, day 12 after administration",37.2 ± 0.4 g
same,Weight,"[2]; Neuromide 40 mg/kg oral, day 15 after administration",37.5 ± 0.4 g
same,Weight,"[2]; Neuromide 40 mg/kg oral, day 19 after administration",37.8 ± 0.4 g
same,Weight,"[2]; Neuromide 40 mg/kg oral, day 22 after administration",38 ± 0.4 g
same,Weight,"[2]; Neuromide 40 mg/kg oral, day 26 after administration",38.3 ± 0.4 g
same,Weight,"[2]; Neuromide 40 mg/kg oral, day 29 after administration",37.9 ± 0.5 g
same,Weight,"[2]; Neuromide 100 mg/kg oral, day 0 after administration",34.9 ± 0.4 g
same,Weight,"[2]; Neuromide 100 mg/kg oral, day 1 after administration",35.3 ± 0.5 g
same,Weight,"[2]; Neuromide 100 mg/kg oral, day 5 after administration",36.2 ± 0.5 g
same,Weight,"[2]; Neuromide 100 mg/kg oral, day 8 after administration",36.7 ± 0.7 g
same,Weight,"[2]; Neuromide 100 mg/kg oral, day 12 after administration",37.6 ± 0.5 g
same,Weight,"[2]; Neuromide 100 mg/kg oral, day 15 after administration",38 ± 0.6 g
same,Weight,"[2]; Neuromide 100 mg/kg oral, day 19 after administration",38.6 ± 0.6 g
same,Weight,"[2]; Neuromide 100 mg/kg oral, day 22 after administration",38.4 ± 0.7 g
same,Weight,"[2]; Neuromide 100 mg/kg oral, day 26 after administration",38.8 ± 0.6 g
same,Weight,"[2]; Neuromide 100 mg/kg oral, day 29 after administration",38.9 ± 0.8 g
same,"Ceramide content, N-acyl chain length C14",ceramide; [3],2.71
same,"Ceramide content, N-acyl chain length C16",ceramide; [3],284.09
same,"Ceramide content, N-acyl chain length C18",ceramide; [3],3956.61
same,"Ceramide content, N-acyl chain length C20",ceramide; [3],92.88
same,"Ceramide content, N-acyl chain length C22",ceramide; [3],51.78
same,"Ceramide content, N-acyl chain length C24",ceramide; [3],68.30
same,"Ceramide content, N-acyl chain length C24:1",ceramide; [3],453.42
same,"Ceramide content, N-acyl chain length C26",ceramide; [3],11.09
same,"Ceramide content, N-acyl chain length C26:1",ceramide; [3],4.59
same,"Ceramide content, Total",ceramide; [3],4925.46
same,ceramide synthesis amount,"ceramide; forebrain, Neuromide 100 mg/kg",significantly increased
same,"Ceramide content, N-acyl chain length C14",ceramide; [4],2.92 and 2.50
same,"Ceramide content, N-acyl chain length C16",ceramide; [4],288.68 and 279.51
same,"Ceramide content, N-acyl chain length C18",ceramide; [4],3980.71 and 3932.52
same,"Ceramide content, N-acyl chain length C20",ceramide; [4],94.95 and 90.81
same,"Ceramide content, N-acyl chain length C22",ceramide; [4],60.05 and 43.51
same,"Ceramide content, N-acyl chain length C24",ceramide; [4],77.31 and 59.29
same,"Ceramide content, N-acyl chain length C24:1",ceramide; [4],498.48 and 408.35
same,"Ceramide content, N-acyl chain length C26",ceramide; [4],12.46 and 9.72
same,"Ceramide content, N-acyl chain length C26:1",ceramide; [4],4.78 and 4.40
same,"Ceramide content, Total",ceramide; [4],5020.32 and 4830.60
same,"Sphingoid base content, S1P",sphingoid base; [3],183.74
same,"Sphingoid base content, Sa1P",sphingoid base; [3],69.57
same,"Sphingoid base content, Sphinganine (Sa)",sphingoid base; [3],545.74
same,"Sphingoid base content, Sphingosine (SPN)",sphingoid base; [3],2010.00
same,S1P increase as compared with the normal control group,"sphingoid base; forebrain, Neuromide 100 mg/kg",≥ 20%
same,"Sphingoid base content, S1P",sphingoid base; [4],159.43 and 208.05
same,"Sphingoid base content, Sa1P",sphingoid base; [4],69.16 and 69.98
same,"Sphingoid base content, Sphinganine (Sa)",sphingoid base; [4],506.47 and 585.01
same,"Sphingoid base content, Sphingosine (SPN)",sphingoid base; [4],1861.23 and 2158.78
"COc1cc2c(cc1OC)C(=O)C(CC1CCN(Cc3ccccc3)CC1)C2 (stereo not shown) [Donepezil, Donepezil hydrochloride, reference compound]",Passive avoidance test Time taken (latency time),ICR mouse; [5],45.6 s and 45.6 ± 14 s
same,Acetylcholine,acetylcholine; [5],1.8 Nmol/mg protein and 1.8 ± 0.2 Nmol/mg protein
same,TNF-α,TNF-α; [5],186.2 pg/mg tissue protein and 186.2 ± 30.3 pg/mg tissue protein
same,IL-1β,IL-1β; [5],160.9 pg/mg tissue protein and 160.9 ± 23.2 pg/mg tissue protein
